Measured values as given in patent publication US20150056702A1, “METHOD AND KIT FOR CULTURING STEM CELLS” (China Medical University, priority 2013, published 2015).

Tests used:
Assay type in all cases: cell-based, mouse
[1] = test system: ES cells; assay: Alkaline phosphatase staining of ES cells
Procedure: The following steps were conducted in order to culture ES cells: • (1) preparing a stem cell medium: DMEM+15% heat-inactivated FBS+NEAA (0.1 mM)+L-glutamine (2 mM)+β-mercaptoethanol (0.2 mM); • (2) preparing a BP-containing solution: dissolving BP into DMSO to form a BP-containing solution (100 mg/ml), and storing the solution at −20° C.; • (3) adding different amounts of the BP-containing solution in step (2) into the stem cell medium in step (1) to form different BP-containing mediums, wherein the amount of BP were about 5, 10, 20 or 40 μg per milliliter of the stem cell medium respectively (i.e. the experimental group mediums: BP5, BP10, BP20 and BP40); and • (4) using the BP-containing medium of in step (3) to culture a ES cell (retrieved from the embryos in the blastula stage of 129sv/J mice) at 37° C., 5% CO2 and 95% humidity on the feeder cells provided by Example 1.
The following procedure was conducted in proper order to culture the ES cells: • (1) preparing a stem cell medium: • LIF-containing medium (without BP): DMEM+15% heat-inactivated FBS+NEAA (0.1 mM)+L-glutamine (2 mM)+(3-mercaptoethanol (0.2 mM)+LIF (4 ng/ml); and • control medium (without BP): DMEM+15% heat-inactivated FBS+NEAA (0.1 mM)+L-glutamine (2 mM)+β-mercaptoethanol (0.2 mM); • (2) using the medium in step (1) to culture a ES cell (retrieved from embryos in the blastula stage of 129sv/J mice) at 37° C., 5% CO2 and 95% humidity on the feeder cells provided by Example 1.
Alkaline phosphatase is a marker protein of stem cells. The activity measured by staining could be used to determine if BP can effectively maintain the self-renewal and/or pluripotency of stem cells.
An experimental group medium (BP5, BP10, BP20 or BP40), a LIF-containing medium (without BP) and a control group medium (without BP) were used respectively to culture ES cells in a 6-well culture dish with an initial density of 1×10^4 per well for 72 hours. The medium was removed and the cells were washed two times with PBS. Next, PBS was removed, and 1 ml of 80% ethanol was added into each well to perform the fixation at 4° C. for 2 to 24 hours. Next, ethanol was removed, and then the cells were washed one time with distilled water. The distilled water was added again to soak the cells for 2 to 3 minutes, and then be removed. Next, the cells were soaked with a Tris-HCl buffer (100 mM, pH 8.2 to 8.5) at room temperature for 5 minutes, and then, the buffer was removed. Next, a Leukocyte Alkaline Phosphatase kit (Vector) was used to perform the staining for 20 to 30 minutes, and then the Alkaline Phosphatase Substrate working solution was removed, the cells were soaked and washed by Tris-HCl buffer (100 mM, pH 8.2 to 8.5) and then be observed by a fluorescent microscope to count the number of the AP-positive clones. The undifferentiated ES cells with a higher activity show a red color, while the differentiated ES cells with a lower activity show a weak red color or are even colorless.

[2] = test system: Nanog; assay: Immunofluorescence staining, Nanog in ES cells; settings: for Nanog expression level: ES cells, 72 hours, control group = 100%
Text: (§1) Nanog and SSEA1 are also marker proteins of stem cells, and their expression levels could be measured by immunofluorescence staining to further confirm whether BP can effectively maintain the self-renewal and pluripotency of stem cells.
(§2) An experimental group medium (BP5, BP10, BP20 or BP40), a LIF-containing medium (without BP), and a control group medium (without BP) were used respectively in a 6-well culture dish which comprises a slide in each well to culture ES cells with an initial density of 1×10^4 per well for 72 hours. The medium was removed and the cells were washed with PBS. Next, PBS was removed, and then 4% paraformaldehyde was added to perform the fixation at room temperature for 10 minutes. Next, paraformaldehyde was removed, and then slides were washed with 0.1% Tween-20/1X PBS three times for 10 minutes each time. The 0.3% Tween-20/1X PBS was added and held at room temperature for 30 minutes to penetrate the cell membrane to benefit the dye entry. After the slides were washed three times with 0.1% Tween-20, 5% FBS/1×PBS was added to perform a blocking reaction at room temperature for 2 hours, and then reacting with the primary antibody [anti-Nanog (Novus) or anti-SSEA1 (Millipore)] at a dilution of 1:100 at room temperature overnight. Slides were then washed 5 times with 0.1% Tween-20, then reacting with the secondary antibody [FITC-conjugated anti-mouse IgG or TRITC-conjugated anti-rabbit IgG (Sigma-Aldrich)] at a dilution of 1:500. After washed with 0.1% Tween-20 for 10 minutes, slides were mounted with the DAPI-containing UltraCruz™ Mounting medium and observed using an inverted fluorescent microscope.

[3] = test system: SSEA1; assay: Immunofluorescence staining, SSEA1 in iPS cells; settings: 72 hours, control group = 100%
Text: as §1, §2
By using the above culture conditions, an experimental group medium (BP5, BP10, BP20 or BP40), a LIF-containing medium (without BP), and a control group medium (without BP) were used respectively to culture iPS cells. The staining of iPS cells was performed by using the steps described above.

[4] = BP-containing ES cell medium vs control group (without BP), result in words
[5] = BP10 medium (about 10 μg BP/ml)
[6] = BP20 medium (about 20 μg BP/ml)
[7] = BP40 medium (about 40 μg BP/ml)
[8] = LIF-containing medium (LIF 4 ng/ml, without BP)

## CCCC=C1OC(=O)c2ccccc21 [BP, n-butylidenephthalide]
[1]; BP5 medium (about 5 μg BP/ml), ES cells, 72 hours, control group = 100%
  AP-positive clones: 91%
[1]; BP10 medium (about 10 μg BP/ml), ES cells, 72 hours, control group = 100%
  AP-positive clones: 116%
[1]; BP20 medium (about 20 μg BP/ml), ES cells, 72 hours, control group = 100%
  AP-positive clones: 116%
[1]; BP40 medium (about 40 μg BP/ml), ES cells, 72 hours, control group = 100%
  AP-positive clones: 117%
[1]; [4]
  AP-positive clones: more AP-positive clones
[2]; BP5 medium (about 5 μg BP/ml)
  Nanog expression level: 113.22%
[2]; [5]
  Nanog expression level: 183.28%
[2]; [6]
  Nanog expression level: 213.8%
[2]; [7]
  Nanog expression level: 212.83%
[2]; [4]
  expression level of Nanog: higher
[3]; BP5 medium (about 5 μg BP/ml)
  SSEA1 expression level: 117%
[3]; [5]
  SSEA1 expression level: 101%
[3]; [6]
  SSEA1 expression level: 94%
[3]; [7]
  SSEA1 expression level: 137%

## LIF: multifunctional cell factor used to maintain pluripotency of stem cells; LIF-containing medium (4 ng/ml, without BP) as comparison
[1]; LIF-containing medium (LIF 4 ng/ml, without BP), ES cells, 72 hours, control group = 100%
  AP-positive clones: 110%
[2]; [8]
  Nanog expression level: 204.46%
[3]; [8]
  SSEA1 expression level: 230%
